Literature values, collected in patent US20220202849A1, “PERK AS A TARGET FOR VIRUS THERAPEUTICS” (priority 2020, published 2022).

Test system: PERK
Settings: as quoted with vendor catalog entry; read-out: PERK inhibitor IC50

| Compound | IC50 [nM] |
| --- | --- |
| Cc1cccc(CC(=O)N2CCc3c2ccc(-c2cn(C)c4ncnc(N)c24)c3F)n1 [GSK2656157] | ~0.9 |
| O=C(COc1ccc(Cl)cc1)N[C@H]1CC[C@@H](NC(=O)COc2ccc(Cl)cc2)CC1 [ISRIB (trans-isomer), ISRIB] | ~5 |
